A word on the IC50: it is the concentration that inhibits the measured activity by half.

In patent publication US20240287080A1 (IDEAYA Biosciences Inc., priority 2021, published 2024) one finds IC50 data, which are given here for 37 compounds.

Bounds are passed on as bounds.

The assay deals with T1, Pol theta (1-899) (Homo sapiens, UniProt O75417).
T1 construct: Pol theta (1-899) (5 nM) in assay buffer
T1 sequence (O75417 1-899): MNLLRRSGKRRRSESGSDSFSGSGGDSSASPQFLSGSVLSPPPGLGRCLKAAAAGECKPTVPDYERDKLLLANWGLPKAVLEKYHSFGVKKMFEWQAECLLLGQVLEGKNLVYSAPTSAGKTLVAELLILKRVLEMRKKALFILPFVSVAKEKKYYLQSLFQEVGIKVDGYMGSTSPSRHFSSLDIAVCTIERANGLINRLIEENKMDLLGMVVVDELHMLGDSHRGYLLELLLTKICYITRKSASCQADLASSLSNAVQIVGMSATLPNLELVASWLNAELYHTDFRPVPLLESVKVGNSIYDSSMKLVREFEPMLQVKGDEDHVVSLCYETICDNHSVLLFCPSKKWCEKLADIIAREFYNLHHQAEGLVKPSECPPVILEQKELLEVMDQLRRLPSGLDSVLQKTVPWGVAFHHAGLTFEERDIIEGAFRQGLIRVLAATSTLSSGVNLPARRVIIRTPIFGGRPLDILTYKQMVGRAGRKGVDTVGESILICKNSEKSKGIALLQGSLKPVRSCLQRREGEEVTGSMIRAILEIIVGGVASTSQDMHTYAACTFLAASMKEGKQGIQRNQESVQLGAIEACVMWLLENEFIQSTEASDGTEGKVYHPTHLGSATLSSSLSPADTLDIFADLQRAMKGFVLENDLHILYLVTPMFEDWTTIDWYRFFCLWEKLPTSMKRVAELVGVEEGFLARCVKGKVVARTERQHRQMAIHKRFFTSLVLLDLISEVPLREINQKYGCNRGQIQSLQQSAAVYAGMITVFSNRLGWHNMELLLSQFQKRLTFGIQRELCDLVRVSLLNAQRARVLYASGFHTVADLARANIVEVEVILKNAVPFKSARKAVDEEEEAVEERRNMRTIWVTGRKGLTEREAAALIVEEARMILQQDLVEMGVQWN
The assay is described as follows: Pol theta ATPase activity, NADH oxidation-coupled enzymatic assay (ATPase NADH coupling: Standard Screening: hPolQ). Type of assay: biochemical. To be noted: Pol theta (1-899) 5 nM, NADH oxidation-coupled ATPase assay; compounds of Table 3. In outline:
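Rates of ATP hydrolysis taken from 60-min A340 traces of NADH oxidation via PK/LDH coupling, then fit four-parameter for IC50, Hill slope and max inhibition. Enzyme (5 nM, 1-899) and compounds preincubated 15 min before ATP 100 μM and 50-thymine ssDNA 300 nM (stock, equal volume added).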
For the compound `COc1nnc(NC(=O)c2cnc(C)cc2-c2cncc(C(=O)NC3CC3)c2)s1` [Example 403, N5-cyclopropyl-N3′-(5-methoxy-1,3,4-thiadiazol-2-yl)-6′-methyl-[3,4′-bipyridine]-3′,5-dicarboxamide], the IC50 lay in the range of 1000 to 10000 nM. For `COc1nnc(NC(=O)c2cnc(C)cc2-c2ccnc(C)c2)s1` [Example 404, N-(5-methoxy-1,3,4-thiadiazol-2-yl)-2′,6-dimethyl-[4,4′-bipyridine]-3-carboxamide] the value was 1000 to 10000 nM; for `COc1nnc(NC(=O)c2cnc(C)cc2-c2cc(C)cc(F)c2)s1` [Example 405, 4-(3-fluoro-5-methylphenyl)-N-(5-methoxy-1,3,4-thiadiazol-2-yl)-6-methylpyridine-3-carboxamide], 200 to 500 nM. Turning to `COc1nnc(NC(=O)c2cnc(C)cc2-c2ccncc2C)s1` [Example 406, N-(5-methoxy-1,3,4-thiadiazol-2-yl)-3′,6-dimethyl-[4,4′-bipyridine]-3-carboxamide], the half-inhibitory concentration (IC50) fell in the range of 1000 to 10000 nM.

Turning to `COc1ccc(-c2cc(C)ncc2C(=O)Nc2nnc(OC)s2)cn1` [Example 407, 6-methoxy-N-(5-methoxy-1,3,4-thiadiazol-2-yl)-6′-methyl-[3,4′-bipyridine]-3′-carboxamide], the half-inhibitory concentration (IC50) was in the range of 1000 to 10000 nM. As to `COc1nnc(NC(=O)c2cnc(C)cc2-c2cccc(OC(F)(F)F)c2)s1` [Example 408, N-(5-methoxy-1,3,4-thiadiazol-2-yl)-6-methyl-4-[3-(trifluoromethoxy)phenyl]pyridine-3-carboxamide], the half-maximal inhibitory concentration (IC50) fell in the range of 500 to 1000 nM. For `COc1nnc(NC(=O)c2cnc(C)cc2-c2ccc3c(c2)OCO3)s1` [Example 409, 4-(2H-1,3-benzodioxol-5-yl)-N-(5-methoxy-1,3,4-thiadiazol-2-yl)-6-methylpyridine-3-carboxamide], the half-maximal inhibitory concentration (IC50) fell in the range of 500 to 1000 nM.

`COc1nnc(NC(=O)c2cnc(C)cc2-c2cccc(CN(C)C)c2)s1` [Example 410, 4-(3-((dimethylamino)methyl)phenyl)-N-(5-methoxy-1,3,4-thiadiazol-2-yl)-6 methylnicotinamide]: the IC50 lay within 1000 to 10000 nM. For `COc1nnc(NC(=O)c2cnc(C)cc2-c2cccc(OC)c2C#N)s1` [Example 411, 4-(2-cyano-3-methoxyphenyl)-N-(5-methoxy-1,3,4-thiadiazol-2-yl)-6-methylpyridine-3-carboxamide] the value was 1000 to 10000 nM; for `COc1nnc(NC(=O)c2cnc(C)cc2-c2cccc(N(C)C)c2)s1` [Example 412, 4-[3-(dimethylamino)phenyl]-N-(5-methoxy-1,3,4-thiadiazol-2-yl)-6-methylpyridine-3-carboxamide], 1000 to 10000 nM. For `COc1nnc(NC(=O)c2cnc(C)cc2-c2cnc(C#N)cc2C)s1` [Example 413, 6-cyano-N-(5-methoxy-1,3,4-thiadiazol-2-yl)-4,6′-dimethyl-[3,4′-bipyridine]-3′-carboxamide] the value was 1000 to 10000 nM; for `COc1nnc(NC(=O)c2cnc(C)cc2-c2cccc(C)c2F)s1` [Example 414, 4-(2-fluoro-3-methylphenyl)-N-(5-methoxy-1,3,4-thiadiazol-2-yl)-6-methylpyridine-3-carboxamide], no more than 200 nM. For `COc1nnc(NC(=O)c2cnc(C)cc2-c2cccc(N3CCOCC3)c2)s1` [Example 415, N-(5-methoxy-1,3,4-thiadiazol-2-yl)-6-methyl-4-[3-(morpholin-4-yl)phenyl]pyridine-3-carboxamide], the 50% inhibitory concentration (IC50) was 1000 to 10000 nM.

Take `COc1nnc(NC(=O)c2cnc(C)cc2-c2ccc3c(c2)COC3=O)s1` [Example 416, N-(5-methoxy-1,3,4-thiadiazol-2-yl)-6-methyl-4-(1-oxo-1,3-dihydro-2-benzofuran-5-yl)pyridine-3-carboxamide]: the IC50 was 1000 to 10000 nM. In the case of `COc1nnc(NC(=O)c2cnc(C)cc2-c2ccc3cn(C)nc3c2)s1` [Example 417, N-(5-methoxy-1,3,4-thiadiazol-2-yl)-6-methyl-4-(2-methyl-2H-indazol-6-yl)nicotinamide] it was 1000 to 10000 nM; in that of `COc1nnc(NC(=O)c2cnc(C)cc2-c2ccc3c(c2)OCCN3C)s1` [Example 418, N-(5-methoxy-1,3,4-thiadiazol-2-yl)-6-methyl-4-(4-methyl-3,4-dihydro-2H-1,4-benzoxazin-7-yl)pyridine-3-carboxamide], 1000 to 10000 nM; in that of `COc1nnc(NC(=O)c2cnc(C)cc2-c2ccc(OC)c(F)c2)s1` [Example 419, 4-(3-fluoro-4-methoxyphenyl)-N-(5-methoxy-1,3,4-thiadiazol-2-yl)-6-methylpyridine-3-carboxamide], 1000 to 10000 nM. With `COc1nnc(NC(=O)c2cnc(C)cc2-c2cc(C)nn2C)s1` [Example 420, 4-(1,3-dimethyl-1H-pyrazol-5-yl)-N-(5-methoxy-1,3,4-thiadiazol-2-yl)-6-methylpyridine-3-carboxamide], the concentration for half-maximal inhibition (IC50) was in the range of 1000 to 10000 nM. For `COc1nnc(NC(=O)c2cnc(C)cc2-c2cccc(F)c2)s1` [Example 421, 4-(3-fluorophenyl)-N-(5-methoxy-1,3,4-thiadiazol-2-yl)-6-methylpyridine-3-carboxamide] the value was 500 to 1000 nM; for `COc1cc(C)cc(-c2cc(C)ncc2C(=O)Nc2nnc(OC)s2)c1` [Example 422, N-(5-methoxy-1,3,4-thiadiazol-2-yl)-4-(3-methoxy-5-methylphenyl)-6-methylpyridine-3-carboxamide], 500 to 1000 nM. The compound `COc1nnc(NC(=O)c2cnc(C)cc2-c2cccc3sccc23)s1` [Example 423, 4-(1-benzothiophen-4-yl)-N-(5-methoxy-1,3,4-thiadiazol-2-yl)-6-methylpyridine-3-carboxamide] gave a concentration for half-maximal inhibition (IC50) of 200 to 500 nM. For `COc1nnc(NC(=O)c2cnc(C)cc2-c2cnc(C(F)(F)F)cc2C)s1` [Example 424, N-(5-methoxy-1,3,4-thiadiazol-2-yl)-4,6′-dimethyl-6-(trifluoromethyl)-[3,4′-bipyridine]-3′-carboxamide] the value was 1000 to 10000 nM; for `COc1nnc(NC(=O)c2cnc(C)cc2-c2csc3cnccc23)s1` [Example 425, N-(5-methoxy-1,3,4-thiadiazol-2-yl)-6-methyl-4-{thieno[2,3-c]pyridin-3-yl}pyridine-3-carboxamide], 500 to 1000 nM; for `COc1nnc(NC(=O)c2cnc(C)cc2-c2cnc(N3CCOCC3)nc2)s1` [Example 427, N-(5-methoxy-1,3,4-thiadiazol-2-yl)-6-methyl-4-[2-(morpholin-4-yl)pyrimidin-5-yl]pyridine-3-carboxamide], 1000 to 10000 nM. In the case of `COc1nnc(NC(=O)c2cnc(C)cc2-c2ccc(F)cc2C)s1` [Example 428, 4-(4-fluoro-2-methylphenyl)-N-(5-methoxy-1,3,4-thiadiazol-2-yl)-6-methylpyridine-3-carboxamide] it was 500 to 1000 nM; in that of `COCCOc1cccc(-c2cc(C)ncc2C(=O)Nc2nnc(OC)s2)c1` [Example 429, N-(5-methoxy-1,3,4-thiadiazol-2-yl)-4-[3-(2-methoxyethoxy)phenyl]-6-methylpyridine-3-carboxamide], 1000 to 10000 nM. In the case of `COc1nnc(NC(=O)c2cnc(C)cc2-c2cccc(F)c2C#N)s1` [Example 430, 4-(2-cyano-3-fluorophenyl)-N-(5-methoxy-1,3,4-thiadiazol-2-yl)-6-methylpyridine-3-carboxamide] it was 500 to 1000 nM; in that of `COc1nnc(NC(=O)c2cnc(C)cc2-c2cc(F)cnc2OC)s1` [Example 431, 5-fluoro-2-methoxy-N-(5-methoxy-1,3,4-thiadiazol-2-yl)-6′-methyl-[3,4′-bipyridine]-3′-carboxamide], 500 to 1000 nM; in that of `COc1nnc(NC(=O)c2cnc(C)cc2-c2ccc3c(c2)CCN(C)C3)s1` [Example 432, N-(5-methoxy-1,3,4-thiadiazol-2-yl)-6-methyl-4-(2-methyl-1,2,3,4-tetrahydroisoquinolin-6-yl)nicotinamide], 1000 to 10000 nM. In the case of `COc1nnc(NC(=O)c2cnc(C)cc2-c2ccc(C#N)nc2C)s1` [Example 434, 6-cyano-N-(5-methoxy-1,3,4-thiadiazol-2-yl)-2,6′-dimethyl-[3,4′-bipyridine]-3′-carboxamide], the IC50 was 1000 to 10000 nM.

Regarding `COc1ccc(-c2cc(C)ncc2C(=O)Nc2nnc(OC)s2)c(OC)n1` [Example 435, 2,6-dimethoxy-N-(5-methoxy-1,3,4-thiadiazol-2-yl)-6′-methyl-[3,4′-bipyridine]-3′-carboxamide], the IC50 was in the range of 200 to 500 nM. For the compound `COc1nnc(NC(=O)c2cnc(C)cc2-c2coc3ccccc23)s1` [Example 436, 4-(1-benzofuran-3-yl)-N-(5-methoxy-1,3,4-thiadiazol-2-yl)-6-methylpyridine-3-carboxamide], the IC50 is 1000 to 10000 nM.

Turning to `COc1nnc(NC(=O)c2cnc(C)cc2-c2ccc(C#N)nc2)s1` [Example 437, 6-cyano-N-(5-methoxy-1,3,4-thiadiazol-2-yl)-6′-methyl-[3,4′-bipyridine]-3′-carboxamide], the half-inhibitory concentration (IC50) was 1000 to 10000 nM. In the case of `COc1nnc(NC(=O)c2cnc(C)cc2-c2ccc3occc(=O)c3c2)s1` [Example 438, N-(5-methoxy-1,3,4-thiadiazol-2-yl)-6-methyl-4-(4-oxo-4H-chromen-6-yl)nicotinamide] it was 1000 to 10000 nM; in that of `COc1nnc(NC(=O)c2cnc(C)cc2-c2cc(F)cc(C#N)c2)s1` [Example 439, 4-(3-cyano-5-fluorophenyl)-N-(5-methoxy-1,3,4-thiadiazol-2-yl)-6-methylpyridine-3-carboxamide], 500 to 1000 nM. Compound `COc1nnc(NC(=O)c2cnc(C)cc2-c2cnnc(C)c2)s1` [Example 440, N-(5-methoxy-1,3,4-thiadiazol-2-yl)-6-methyl-4-(6-methylpyridazin-4-yl)nicotinamide] had an IC50 of 1000 to 10000 nM. For `COc1nnc(NC(=O)c2cnc(C)cc2-c2cscc2C#N)s1` [Example 442, 4-(4-cyanothiophen-3-yl)-N-(5-methoxy-1,3,4-thiadiazol-2-yl)-6-methylpyridine-3-carboxamide] the value was 1000 to 10000 nM.
